Measurements: patent publication US9969742B2, “Imidazotriazinone compounds” (Ironwood Pharmaceuticals, Inc., priority 2012, dated 2018)

The compounds below were run against T1, PDE9A2 (Homo sapiens, UniProt O76083) (assay: Phosphodiesterase enzyme screening assay, PDE9A2). Details: 4.0 μM cGMP substrate, 1 hour at R.T.; read-out: Band (PDE9A2 IC50).
T1 construct: purchased Reaction Biology Corporation, Malvern, Pa
Format: biochemical
Text: Compounds of the invention were screened against PDE1A, PDE1B, PDE2A, PDE3A, PDE3B, PDE4A1A, PDE4B1, PDE4D3, PDE5A1, PDE6C, PDE7A, PDE8A1, PDE9A2, PDE10A2 AND PDE11A isoforms of the phosphodiesterase enzyme to determine activity and overall selectivity through comparative analysis. […] Where 8-methoxy-IBMX and Zaprinast were used as reference inhibitors.
The phosphodiesterase enzyme isoforms were obtained from a commercial retailer (Reaction Biology Corporation, Malvern, Pa.) for use in the instant screening assay.
The analysis was completed using the Caliper LabChip 3000 and a 12-sipper LabChip. LabChip assays are separations-based, meaning that the product and substrate are electrophoretically separated, thereby minimizing interferences and yielding the highest data quality available on any screening platform. […] High Z′ values, few false positives, few false negatives and analytical quality reproducibility are the reasons cited for the increasing reliance on the LabChip assays.
The off-chip incubation mobility-shift phosphodiesterase assay uses a microfluidic chip to measure the conversion of a fluorescent cyclic AMP substrate to a 5′-AMP product, or a cyclic GMP substrate to a 5′-GMP product. The reaction mixture, from a microtiter plate well, is introduced through a capillary sipper onto the chip, where the fluorescent substrate and product are separated by electrophoresis and detected via laser-induced fluorescence. […] The precision of microfluidics allows researchers to detect subtle interactions between drug candidates and therapeutic targets.
Reactions were carried out in 100 mM HEPES (pH 7.5), 5 mM MgCl2, 1 mM DTT, 0.003% Brij, 4.0 μM cGMP substrate. The reaction was started by addition of cGMP or cAMP and incubated for 1 hour at R.T. The reaction was terminated by the addition of stop buffer containing 100 mM HEPES (pH 7.5), 15 mM EDTA, 0.015% Brij-35, 5% DMSO. Cyclic AMP/GMP substrate and 5′-AMP/5′-GMP product were separated by charge using electrophoretic mobility shift. Product formed was compared to control wells to determine inhibition or enhancement of enzyme activity.
Data points were averages of quadruplicate wells and error bars represented the SEM for each point.

T1 sequence (O76083 1-533 isoform O76083-2): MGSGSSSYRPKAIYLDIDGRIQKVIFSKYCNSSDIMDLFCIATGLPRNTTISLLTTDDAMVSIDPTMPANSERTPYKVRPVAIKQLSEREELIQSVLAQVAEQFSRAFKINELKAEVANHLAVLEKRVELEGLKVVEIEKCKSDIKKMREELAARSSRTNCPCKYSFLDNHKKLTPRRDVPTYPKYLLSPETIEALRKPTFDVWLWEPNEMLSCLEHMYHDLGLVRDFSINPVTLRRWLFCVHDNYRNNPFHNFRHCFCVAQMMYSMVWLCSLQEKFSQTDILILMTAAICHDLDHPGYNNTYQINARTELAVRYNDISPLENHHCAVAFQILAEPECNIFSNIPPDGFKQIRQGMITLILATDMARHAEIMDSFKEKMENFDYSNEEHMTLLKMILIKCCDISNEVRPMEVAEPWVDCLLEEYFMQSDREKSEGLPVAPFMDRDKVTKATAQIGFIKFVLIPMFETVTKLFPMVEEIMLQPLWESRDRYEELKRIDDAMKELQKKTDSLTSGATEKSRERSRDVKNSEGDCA

Row | IC50 | SMILES
1 | < 1 µM | CC1CN(Cc2ccc(F)cc2)CC1c1nn2c(-c3ccccc3C(F)(F)F)ncc2c(=O)[nH]1 (single isomer, unassigned; (+))
2 | < 1 µM | CC1CN(Cc2ccccc2)CC1c1nn2c(-c3ccccc3C(F)(F)F)ncc2c(=O)[nH]1 (single isomer, unassigned; (+))
3 | < 1 µM | CC1CN(Cc2ncccn2)CC1c1nn2c(-c3ccccc3C(F)(F)F)ncc2c(=O)[nH]1 (single isomer, unassigned; (+))
4 | < 1 µM | Cc1cnccc1-c1ncc2c(=O)[nH]c(C3CN(Cc4ccc(F)cc4)CC3C)nn12 (single isomer, unassigned; (+)) [(+)-2-((3,4-trans)-1-(4-fluorobenzyl)-4-methylpyrrolidin-3-yl)-7-(3-methylpyridin-4-yl) imidazo [5,1-f] [1,2,4] triazin-4 (3H)-one]
5 | < 1 µM | CC1CN(Cc2nc3ccccn3n2)CC1c1nn2c(-c3ccccc3C(F)(F)F)ncc2c(=O)[nH]1 (single isomer, unassigned; (+)) [(+)-2-((3,4-trans)-1-([1,2,4]triazolo[1,5-a]pyridin-2-ylmethyl)-4-methylpyrrolidin-3-yl)-7-(2-(trifluoromethyl)phenyl)imidazo[5,1-f][1,2,4]triazin-4(3H)-one]
6 | < 1 µM | CC1CN(Cc2nc3ccccn3n2)CC1c1nn2c(-c3ccccc3F)ncc2c(=O)[nH]1 (single isomer, unassigned; (+)) [(+)-2-((3,4-trans)-1-([1,2,4]triazolo[1,5-a]pyridin-2-ylmethyl)-4-methylpyrrolidin-3-yl)-7-(2-fluorophenyl)imidazo[5,1-f][1,2,4]triazin-4(3H)-one]
7 | < 1 µM | Cc1cnccc1-c1ncc2c(=O)[nH]c(C3CN(Cc4nc5ccccn5n4)CC3C)nn12 (single isomer, unassigned; (+)) [(+)-2-((3,4-trans)-1-([1,2,4]triazolo[1,5-a]pyridin-2-ylmethyl)-4-methylpyrrolidin-3-yl)-7-(3-methylpyridin-4-yl)imidazo[5,1-f][1,2,4]triazin-4(3H)-one]

Same assay, conditions: Table 1; 10 concentrations; 4.0 μM cGMP substrate; 1 hour at R.T.; read-out: Band (PDE9A2 IC50)

Row | IC50 | SMILES
8 | < 1 µM | Cc1cnc(CN2C[C@@H](C)[C@H](c3nn4c(C5CCOCC5)ncc4c(=O)[nH]3)C2)cn1 (relative stereo) [(+)-2-((3,4-trans)-4-methyl-1-((5-methylpyrazin-2-yl)methyl)pyrrolidin-3-yl)-7-(tetrahydro-2H-pyran-4-yl)imidazo[5,1-f][1,2,4]triazin-4(3H)-one]
9 | 1 to 10 µM | CC1CN(C(C)c2ccccc2)CC1c1nn2c(C3CCOCC3)ncc2c(=O)[nH]1 (single isomer, unassigned; (+)) [listing 1 of 2 here]
10 | < 1 µM | CC1CN(C(C)c2ccccc2)CC1c1nn2c(C3CCOCC3)ncc2c(=O)[nH]1 (single isomer, unassigned; (+)) [listing 2 of 2 here]
11 | 1 to 10 µM | CC1CN(C(=O)c2ccc(F)cc2)CC1c1nn2c(C3CCOCC3)ncc2c(=O)[nH]1 (single isomer, unassigned; (+)) [(+)-2-((3,4-trans)-1-(4-fluorobenzoyl)-4-methylpyrrolidin-3-yl)-7-(tetrahydro-2H-pyran-4-yl)imidazo[5,1-f][1,2,4]triazin-4(3H)-one]
12 | < 1 µM | CC1CN(S(=O)(=O)c2ccccc2F)CC1c1nn2c(C3CCOCC3)ncc2c(=O)[nH]1 (single isomer, unassigned; (+)) [(+)-2-((3,4-trans)-1-((2-fluorophenyl)sulfonyl)-4-methylpyrrolidin-3-yl)-7-(tetrahydro-2H-pyran-4-yl)imidazo[5,1-f][1,2,4]triazin-4(3H)-one]
13 | < 1 µM | CC1CN(S(=O)(=O)c2cccc(F)c2)CC1c1nn2c(C3CCOCC3)ncc2c(=O)[nH]1 (single isomer, unassigned; (+)) [(+)-2-((3,4-trans)-1-((3-fluorophenyl)sulfonyl)-4-methylpyrrolidin-3-yl)-7-(tetrahydro-2H-pyran-4-yl)imidazo[5,1-f][1,2,4]triazin-4(3H)-one]
14 | < 1 µM | CC1CN(S(=O)(=O)c2ccc(F)cc2)CC1c1nn2c(C3CCOCC3)ncc2c(=O)[nH]1 (single isomer, unassigned; (+)) [(+)-2-((3,4-trans)-1-((4-fluorophenyl)sulfonyl)-4-methylpyrrolidin-3-yl)-7-(tetrahydro-2H-pyran-4-yl)imidazo[5,1-f][1,2,4]triazin-4(3H)-one]
15 | 1 to 10 µM | CCS(=O)(=O)N1CC(C)C(c2nn3c(C4CCOCC4)ncc3c(=O)[nH]2)C1 (single isomer, unassigned; (+)) [(+)-2-((3,4-trans)-1-(ethylsulfonyl)-4-methylpyrrolidin-3-yl)-7-(tetrahydro-2H-pyran-4-yl)imidazo[5,1-f][1,2,4]triazin-4(3H)-one]

Further lines, the compound ahead of its results:

Row | SMILES | IC50
16 | Cc1ccc(Cl)cc1-c1ncc2c(=O)[nH]c([C@@H]3CNC[C@H]3C)nn12 (relative stereo) [(−)-7-(5-chloro-2-methylphenyl)-2-((3,4-trans)-4-methylpyrrolidin-3-yl)imidazo[5,1-f][1,2,4]triazin-4(3H)-one] | 1 to 10 µM
17 | CC1CN(Cc2ccccc2)CC1c1nn2c(C3CCN(C)CC3)ncc2c(=O)[nH]1 (single isomer, unassigned) [2-((3,4-trans)-1-benzyl-4-methylpyrrolidin-3-yl)-7-(1-methylpiperidin-4-yl)imidazo[5,1-f][1,2,4]triazin-4(3H)-one] | 1 to 10 µM

Same assay, conditions: Table 2; 10 concentrations; 4.0 μM cGMP substrate; 1 hour at R.T.; read-out: Band (PDE9A2 IC50)

Row | IC50 | SMILES
18 | < 1 µM | CC1CN(Cc2nc(C(F)(F)F)cc(C(F)(F)F)n2)CC1c1nn2c(C3CCOCC3)ncc2c(=O)[nH]1 (single isomer, unassigned; (+)) [(+)-2-((3,4-trans)-1-((4,6-bis(trifluoromethyl)pyrimidin-2-yl)methyl)-4-methylpyrrolidin-3-yl)-7-(tetrahydro-2H-pyran-4-yl)imidazo[5,1-f][1,2,4]triazin-4(3H)-one]
19 | < 1 µM | CC1CN(Cc2ncc(F)c(N3CCOCC3)n2)CC1c1nn2c(C3CCOCC3)ncc2c(=O)[nH]1 (single isomer, unassigned; (+)) [(+)-2-((3,4-trans)-1-((5-fluoro-4-morpholinopyrimidin-2-yl)methyl)-4-methylpyrrolidin-3-yl)-7-(tetrahydro-2H-pyran-4-yl)imidazo[5,1-f][1,2,4]triazin-4(3H)-one]

Same assay, conditions: read-out: Band (PDE9A2 IC50)

Row | IC50 | SMILES
20 | < 1 µM | CC1CN(CC2CCNCC2)CC1c1nn2c(C3CCOCC3)ncc2c(=O)[nH]1 (single isomer, unassigned; (+))
21 | < 1 µM | CC1CN(CC2CCCC2)CC1c1nn2c(C3CCOCC3)ncc2c(=O)[nH]1 (single isomer, unassigned; (+)) [(+)-2-((3,4-trans)-1-(cyclopentylmethyl)-4-methylpyrrolidin-3-yl)-7-(tetrahydro-2H-pyran-4-yl)imidazo[5,1-f][1,2,4]triazin-4(3H)-one]
22 | 1 to 10 µM | CC1CN(CC2CC2)CC1c1nn2c(C3CCOCC3)ncc2c(=O)[nH]1 (single isomer, unassigned; (+)) [(+)-2-((3,4-trans)-1-(cyclopropylmethyl)-4-methylpyrrolidin-3-yl)-7-(tetrahydro-2H-pyran-4-yl)imidazo[5,1-f][1,2,4]triazin-4(3H)-one]

The next lines start with the compound.

Row | SMILES | IC50
23 | CC1CN(Cc2ccc(Cl)cc2)CC1c1nn2c(-c3cccc(F)c3)ncc2c(=O)[nH]1 (single isomer, unassigned; (+)) [(+)-2-((3,4-trans)-1-(4-chlorobenzyl)-4-methylpyrrolidin-3-yl)-7-(3-fluorophenyl)imidazo[5,1-f][1,2,4]triazin-4(3H)-one] | 1 to 10 µM
24 | Cc1ccncc1-c1ncc2c(=O)[nH]c(C3CN(Cc4ccc(F)cc4)CC3C)nn12 (single isomer, unassigned; (+)) [(+)-2-((3,4-trans)-1-(4-fluorobenzyl)-4-methylpyrrolidin-3-yl)-7-(4-methylpyridin-3-yl)imidazo[5,1-f][1,2,4]triazin-4(3H)-one] | < 1 µM
25 | CC1CN(Cc2nc3ccccc3[nH]2)CC1c1nn2c(-c3ccc(F)cc3)ncc2c(=O)[nH]1 (single isomer, unassigned; (+)) [(+)-2-((3,4-trans)-1-((1H-benzo[d]imidazol-2-yl)methyl)-4-methylpyrrolidin-3-yl)-7-(4-fluorophenyl)imidazo[5,1-f][1,2,4]triazin-4(3H)-one] | < 1 µM
26 | CC1CN(Cc2nc3ccccn3n2)CC1c1nn2c(-c3ccccc3)ncc2c(=O)[nH]1 (single isomer, unassigned; (+)) [(+)-2-((3,4-trans)-1-([1,2,4]triazolo[1,5-a]pyridin-2-ylmethyl)-4-methylpyrrolidin-3-yl)-7-phenylimidazo[5,1-f][1,2,4]triazin-4(3H)-one] | < 1 µM
